Data reported in patent US10975092B2, “Pyrimidine seven-membered-ring compounds, preparation method therefor, pharmaceutical composition thereof, and uses thereof” (priority 2016, dated 2021).

How the values were obtained:
recombinant Mst1 = target: T1, recombinant Mst1 (Homo sapiens, UniProt Q13043); experiment: Inhibition of Mst1 kinase activity, ELISA of Mob1 substrate phosphorylation; format: biochemical; conditions: MST1 IC50, recombinant Mst1 11 nM; ATP 6.7 gIVI; GST-Mob1a substrate; 30° C. 15 min
T1 sequence (Q13043 1-487): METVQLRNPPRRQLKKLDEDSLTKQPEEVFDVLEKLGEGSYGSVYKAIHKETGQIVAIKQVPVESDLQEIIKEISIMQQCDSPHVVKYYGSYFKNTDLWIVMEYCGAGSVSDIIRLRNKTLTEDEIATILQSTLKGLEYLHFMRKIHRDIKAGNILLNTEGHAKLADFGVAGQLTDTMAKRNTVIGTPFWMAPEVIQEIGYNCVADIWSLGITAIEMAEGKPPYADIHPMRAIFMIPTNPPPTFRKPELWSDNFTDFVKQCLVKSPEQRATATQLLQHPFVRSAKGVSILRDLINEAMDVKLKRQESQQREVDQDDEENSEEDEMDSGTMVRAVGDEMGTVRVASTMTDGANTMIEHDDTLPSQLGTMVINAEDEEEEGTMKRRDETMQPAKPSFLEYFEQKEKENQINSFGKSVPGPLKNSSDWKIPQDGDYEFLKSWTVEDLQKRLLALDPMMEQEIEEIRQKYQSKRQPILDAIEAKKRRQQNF
Protocol: (§1) We adopt a specific ELISA (Enzyme-linked immunosorbent assay) assay for measuring the biochemical activity (FIG. 1).
(§2) Specific methods are as follows:
(§3) 1. The substrate was diluted with purified recombinant GST-Mobla 200 nM in coating buffer, added to 96-well plates (Nalge Nunc International, Denmark), coated for overnight at 4° C., washed nextday three times with rinsing solution;
(§4) a. A kinase reaction buffer;
(§5) c. compound (dissolved in DMSO, containing not more than 1% of the total volume of the reaction);
(§6) Control Group Containing No ATP or Kinase;
(§7) 3. The reaction solution was poured to terminate the kinase reaction, and washed 4 times with rinse solution, 5 minutes each wash;
(§8) 4. Add 200 μL, per well of the blocking solution, shaking for 1 hour at room temperature, washed 4 times with rinsing solution;
(§9) 7. Add TMB chromogenic solution (Biolegend, Cat.B200119, B200120). After the color reaction to a certain extent, add to each well 100 μL, of 2M H2SO4 to terminate the reaction;
(§10) 8. […] Each set of three parallel experiments, the negative control is a solution with a final concentration of 1% DMSO, the control is the reaction system containing no ATP. […] The reagents are as follows: Coating Buffer: 0.1M NaHCO 3, 0.033M Na2CO3, pH 9.5 Rinse solution: 0.05% Tween-20 in PBS Reaction buffer: 40 mM of Hepes-NaOH (pH 7.4), 10 mM of MgCl2, 1 mM of dithiothreitol (DTT), 1 mM of NaF, 1 mM of Na3VO4, 1 mM of β-glycerophosphate Blocking solution: 1% BSA dissolved in PBS Compound Inhibition of Kinase Activity

recombinant MST2 = target: T2, recombinant MST2 (Homo sapiens, UniProt Q13188); experiment: Inhibition of Mst2 kinase activity, ELISA of Mob1 substrate phosphorylation; format: biochemical; conditions: MST2 IC50, 3.7 nM recombinant MST2; ATP 11.2 gIVI; GST-Mob1a substrate; 30° C. 15 min
T2 sequence (Q13188 1-491): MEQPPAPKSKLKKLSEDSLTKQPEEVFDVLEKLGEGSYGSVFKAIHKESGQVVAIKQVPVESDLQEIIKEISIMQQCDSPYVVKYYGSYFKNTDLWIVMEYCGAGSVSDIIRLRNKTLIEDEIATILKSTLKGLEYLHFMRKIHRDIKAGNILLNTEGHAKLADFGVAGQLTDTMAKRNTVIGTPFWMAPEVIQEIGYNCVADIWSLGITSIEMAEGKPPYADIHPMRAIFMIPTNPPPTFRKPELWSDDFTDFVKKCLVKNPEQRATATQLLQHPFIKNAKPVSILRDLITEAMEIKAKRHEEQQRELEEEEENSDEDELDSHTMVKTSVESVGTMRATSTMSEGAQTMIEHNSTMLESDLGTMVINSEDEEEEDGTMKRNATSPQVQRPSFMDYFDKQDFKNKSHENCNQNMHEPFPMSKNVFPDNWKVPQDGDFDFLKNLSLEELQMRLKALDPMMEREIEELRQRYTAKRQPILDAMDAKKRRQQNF
Protocol: as §1, §2, §3, §4, §5, §6, §7, §8, §9, §10

[1] = system: wild type mice after hepatectomy; experiment: Liver regeneration after partial liver resection (hepatectomy) in mice; format: in vivo; conditions: about 2/3 hepatectomy, 1 mg/kg body weight intraperitoneally twice daily, 1-7 days
Protocol: Student's t-test in comparing drug-treated group and control group, *P<0.05, ***P<0.001.
8-10 week old wild type mice were anesthetized with intraperitoneal pentobarbital (80 mg/kg body weight). Hepatectomy was performed to remove left rear and intermediate liver lobes, about ⅔ of the entire liver. […] Mice after hepatectomy of 1, 2, 3, 4, 5, 6, or 7 days were sacrificed. Mouse body weight and liver weight are recorded and used to calculate the weight ratio of the liver (FIG. 2a). Liver tissue section used in immunohistochemistry to detect proliferating hepatocytes (of Ki67-positive) percentage.

[2] = system: DSS-treated wild type mice; experiment: Intestinal repair in DSS-induced intestinal injury mouse model; format: in vivo
Protocol: 8-10 week old wild type mice were fed with water containing 2.5% DSS (MW 36-50 kDa, Cat. #160110, MP Biochemical) for 7 days, then switch to conventional drinking water. […] Throughout the experiment, the body weight of mice was weighed every day at a fixed time and calculate the ratio of the weight and the weight before DSS feeding. […] The DAI values were calculated as follows: the integrity of the stool (value 0-3, where 0: full dried fecal pellets; 1: soft particles; 2: loose, wet stool; 3: diarrhea); detection of intestinal bleeding with tolidine (o-tolidine) (value 0-3, where 0: detection reagent was added for 2 minutes, sample no color; 1: detection reagent was added, the sample within 10 seconds from light blue to blue; 2: after adding detection reagents, samples gradually changed from light brown to brown clear blue and a visible color in the feces; 3: after adding detection reagents, samples rapidly becoming brownish blue, significant blood and bleeding in a anus and feces. The body weight change in mice and DAI values were recorded for indicating the degree of intestinal injury repair.

Structure (SMILES) | IC50 (recombinant Mst1) | IC50 (recombinant MST2) | Liver regeneration after partial liver resection (liver/body weight ratio, Ki67-positive hepatocytes) [1] | Intestinal repair in DSS-induced intestinal injury model ([2]; 2.5% DSS in water 7 days, 1 mg/kg body weight injected once per day) | Body weight of DSS-treated mice ([2]; 2.5% DSS in water 7 days, 1 mg/kg once per day, FIG. 3a) | Intestinal injury clinical symptoms (disease activity index, DAI) ([2]; 2.5% DSS in water 7 days, 1 mg/kg once per day, FIG. 3b) | Yap activity in intestinal epithelial cells (immunohistochemical staining) ([2]; day 8 after DSS water feeding, 1 mg/kg once per day, FIG. 3c) | Epithelial repair and cell proliferation (BrdU and Ki67 positive cells in intestinal tissue) ([2]; day 8 after DSS water feeding, 1 mg/kg once per day, FIG. 3c-e)
CN1C(=O)c2sccc2N(C)c2nc(Nc3ccc(S(N)(=O)=O)cc3)ncc21 [II-1] | 140 nM | 40 nM | Effective in Promoting Liver Regeneration | promotes intestinal repair | significantly increase | slow the intestinal injury clinical symptoms | increases Yap activity | promote epithelial repair and cell proliferation
CN1CCN(c2ccc(Nc3ncc4c(n3)N(C)c3ccsc3C(=O)N4C)cc2)CC1 [II-21] | 250 nM | 3100 nM |  |  |  |  |  | 
CN1C(=O)c2ccc(F)cc2N(C)c2nc(Nc3ccc(S(N)(=O)=O)cc3)ncc21 [IH-7] | 3120 nM | 2490 nM |  |  |  |  |  | 
CN1CCN(S(=O)(=O)c2ccc(Nc3ncc4c(n3)N(C)c3ccccc3C(=O)N4)cc2)CC1 [IA-2] | 2380 nM | 14800 nM |  |  |  |  |  | 
CCN1c2ccccc2C(=O)N(C)c2cnc(Nc3ccc(NS(C)(=O)=O)cc3)nc21 [ID-2] | 80 nM | 390 nM |  |  |  |  |  | 
Cc1ccc2c(c1)N(C)c1nc(Nc3ccc(S(C)(=O)=O)cc3)ncc1N(C)C2=O [IH-1] | 5010 nM | 4810 nM |  |  |  |  |  | 
